Test results as given in US11571485B2, “Peptides and antibodies for detecting changes in alzheimer's disease brain and methods of use thereof” (Sanford Burnham Prebys Medical Discovery Institute, priority 2016, dated 2023).
“Also recorded” adds a separate entry of the source.

Legend:
[1] = system: human iPS cell-derived endothelial cells (ECs) from an AD patient; test: AgNP binding to hiPSC-derived brain endothelial cells; assay type: cell-based
Source text: Human iPS cell-derived from an AD patient and from a normal individual were differentiated into endothelial cells and the cultured cells were used in an overlay assay with DAG-coated and control AgNP.
The details of human induced pluripotent stem cells (hiPSCs) derived from Alzheimer disease patients with APP duplication, and non-demented control individuals, are described previously (Israel et al., Nature 482, 216-220 (2012)). These hiPSCs were extensively characterized and have been established as an excellent human model for AD. An additional AD hiPSC line generated from dermal fibroblasts from an individual harboring a Presenilinl (PSEN1) mutation (Coriell Institute, Cat #AG06840) was used to further validate the results from the APP lines. hiPSCs were routinely maintained on mouse embryonic fibroblast as described before (Lin et al., Nat Methods 6, 805-808 (2009); Talantova et al., Proc Natl Acad Sci USA 110, E2518-2527 (2013)). Brain microvascular endothelial cells differentiation of hiPSCs was performed using a previously described protocol (Lippmann et al., Nature biotechnology 30, 783-791 (2012), with minor modifications. Briefly, feeder-free cultures of hiPSCs were allowed to spontaneously differentiate in the absence of bFGF for 5-7 days, and then transferred to Endothelial cell (EC) medium composed of human Endothelial Serum-Free Medium™ (Invitrogen) supplemented with 20 ng/ml bFGF and 1% platelet-poor plasma-derived bovine serum (PDS; Biomedical Technologies). After 1-2 days the cells were dissociated with dispase (2 mg/ml) and were plated on 12 well plates coated with a mixture of collagen IV (400 μg/ml) and fibronectin (100 μg/ml). Cells were then cultured in EC medium until they reached confluence, after which they were split and expanded to near 100% purity. BBB-type EC identity was confirmed by flow cytometry or double immunoreactivity to the hallmark efflux transporter p-glycoprotein and other EC markers (CD31, GLUT-1, PECAM, Occludin, and Claudin-5). Furthermore, the capability of these cells to make functional tight junctions and polarized efflux activity was validated using a dual chamber efflux transport assay as described before.
Cell binding experiments on U251 cells and hiPSCs were with done using peptide conjugated AgNP. U251 cells were cultured in a 96-well plate. The cells were blocked with 200 μl of 10% FCS in HBSS (Hanks' Balanced Salt Solution from Gibco) for 30 min at 37° C. Following that, DAG-AgNPs (0.5 nM concentration diluted in HBSS) alone or in the presence of free non-labeled peptide (200 μM) were incubated on the cells for 1 hour at 37° C. After washing the unbound AgNP with HBSS three times, the plates were imaged with fluorescent microscopy by looking at intrinsic emission from the FAM tag on the peptide. hiPSCs were cultured in 48 well plate and similar protocol as described above was followed, with the exception that AgNP concentration for incubation was kept at 0.15 nM. Nanoparticle binding was quantified from fluorescence micrographs using ImageJ™ software.

[2] = system: hAPP-J20 mouse brain sections; test: Tissue section overlay of FAM-labeled peptides on mouse brain sections; assay type: binding; details: hAPP-J20 vs age-matched wild-type mice, hippocampal region
Experimental: PFA fixed sections were incubated in PBS for 10 minutes, followed by PBS-Triton-x-100 (0.2%) for 10 minutes. Sections were rinsed with PBST, mounted in a slide holder, and subsequently washed with PBS-T during 12 minutes. Slides were blocked with blocking buffer for 60 minutes at room temperature. Then, peptides were incubated at a concentration of 10 μg/mL dissolved in concentrated blocking buffer, for three hours at room temperature. Sections were then washed with three 4-minute washes of PBS-T, and subsequently fixed with PFA for 10 minutes, followed by three 3-minute washes with PBS-T. Sections were then incubated with primary antibody at 1/200 in diluted blocking buffer overnight at 4° C. Later, sections were washed with three 4-minute washes with PBS-T. Slides were then incubated with secondary antibody at 1/200 dilution in diluted blocking buffer for 30 minutes at room temperature, followed by three 4-minute washes of PBS-T. Sections were then counterstained with DAPI for 5 minutes, washed with PBS-T and mounted.

[3] = system: hippocampus of hAPP-J20 AD and wild-type mice; test: In vivo CX7C T7 phage library screen, sequencing of phage recovered from hippocampus; design: species or system mouse; details: 9-month AD mouse vs normal mouse hippocampus
Experimental: In vivo phage screening was conducted using a T7 phage library expressing random peptides with the composition of CXnC (C=cysteine; X=any amino acid; n=7). The mouse model used for this screening is the hAPP-J20 that expresses amyloid precursor protein (APP) with both the Swedish and Indiana mutations (Murrell et al., Science 254, 97-99. (1991); Mullan et al., Nat. Genet. 1, 345-347. (1992)). Peptides homing to the hippocampus of these mice was the focus because the hippocampal region is where the AB-related lesions and damage are most prevalent early on in the disease.
A CX7C phage library was intravenously injected into 9 month-old AD and wild-type (WT) littermate mice, and allowed to circulate for 30 min, after which mice were perfused with saline, brains were collected, and the hippocampal region was dissected and subjected to phage titration and high throughput sequencing of the phage inserts. A surprise result was that the number of phage recovered from the AD hippocampus samples was much higher than the number recovered from a similar screen on normal littermates of the AD mice (FIG. 1A). […] BBB leakage has also been reported in AD patients.
Parallel phage library screens were performed on a normal mouse and a 9-month old AD transgenic mouse (J20 hAPP tg mouse line, which expresses transgenic amyloid precursor protein with two disease-related mutations). The library was intravenously injected into anesthetized mice and the hippocampal area of the brain was collected 30 min after intravenous injection of the library, phage was isolated from the tissue samples and subjected to high throughput sequencing of the peptide-encoding inserts in the phage DNA. Table 1 list most abundantly represented peptide from the two kinds of brains, and all peptides with significant representation in the AD brain and absent or nearly absent in the normal brain are listed in Table 2. Two peptides, CASPRLSKC (SEQ ID NO: 3) and CESPLLSEC (SEQ ID NO: 11), from among the highest scoring ones were subjected to detailed studies as described below.
hAPP-J20 mice were intravenously injected with 1e10 pfu of a CX7C (wherein X is any amino acid) naïve phage library, in 100 μL of PBS. The library was allowed to circulate for 30 minutes, after which mice were anesthetized with 2.5% avertin and perfused with PBS intracardially. The brain was removed and the hippocampus was extracted and homogenized in LB-NP 40 (1%) and phage was processed as described (Teesalu et al., Methods Enzymol 503, 35-56 (2012)). The phages in the lysate were rescued by amplification in E. coli and peptide-encoding portion of the phage genome was sequenced using Ion Torrent high throughput sequencing.

CDAGRKQKC
Binding to AD patient iPS cell-derived endothelial cells ([1]; AD patient vs normal donor cells): recognizes endothelial cells differentiated from AD iPS cells and not cells prepared similarly from a control individual
Binding to hiPSC-derived BMECs from non-demented individual ([1]; control cells): did not bind to hiPSC-derived BMECs from a non-demented individual
Ex vivo peptide binding to brain sections [2]: bound to a much greater degree in the hippocampal region of hAPP-J20 mice than to age-matched wild-type mice; also recorded: far stronger than DAG binding to WT brain
Representation in sequenced phage pools, AD versus normal brain [3]: dominated
